{
  "source": "ChEMBL document CHEMBL5126506",
  "about": "“Coumarin-benzimidazole hybrids: A review of developments in medicinal chemistry” (Eur J Med Chem, 2022)",
  "key": {"[1]": {"target": "Serum paraoxonase/arylesterase 1 (Homo sapiens, UniProt P27169)", "sequence (P27169 whole entry)": "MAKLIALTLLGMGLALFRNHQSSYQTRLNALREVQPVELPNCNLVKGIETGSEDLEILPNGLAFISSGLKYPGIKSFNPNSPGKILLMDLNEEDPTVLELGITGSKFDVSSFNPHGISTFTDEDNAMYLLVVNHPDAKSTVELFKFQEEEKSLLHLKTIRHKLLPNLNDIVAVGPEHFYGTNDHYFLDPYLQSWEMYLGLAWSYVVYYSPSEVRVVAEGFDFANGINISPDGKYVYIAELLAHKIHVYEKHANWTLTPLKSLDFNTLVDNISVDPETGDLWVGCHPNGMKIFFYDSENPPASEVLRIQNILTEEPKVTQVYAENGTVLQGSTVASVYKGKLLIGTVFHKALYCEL", "experiment": "Inhibition of human PON1 using paraoxon as a substrate by regression analysis"}, "Pseudomonas aeruginosa [2]": {"tested_on": "Pseudomonas aeruginosa", "experiment": "Antibacterial activity against Pseudomonas aeruginosa assessed as cell growth inhibition measured after 24 hrs by serial broth-dilution method", "assay_type": "functional"}, "[3]": {"experiment": "Antioxidant activity assessed as DPPH radical scavenging activity incubated for 10 mins in dark condition by spectrophotometer method", "assay_type": "functional"}, "Mus musculus": {"tested_on": "Mus musculus", "experiment": "Antiinflammatory activity in carrageenan induced mouse paw oedema model assessed as inhibition of paw oedema at 100 mg/kg, po pretreated with compound for 30 mins followed by carrageenan injection measured after 5 hrs relative to control", "assay_type": "functional", "set-up": "scale not given: the % may be the effect or the level left", "settings": "time 5.5 hrs"}, "Bacillus subtilis [4]": {"tested_on": "Bacillus subtilis", "experiment": "Antibacterial activity against Bacillus subtilis MTCC 1789 measured after 16 hrs by CLSI based microtitre broth dilution method", "assay_type": "functional"}, "Staphylococcus aureus [5]": {"tested_on": "Staphylococcus aureus", "experiment": "Antibacterial activity against Staphylococcus aureus ATCC 6538P measured after 16 hrs by CLSI based microtitre broth dilution method", "assay_type": "functional"}, "Pseudomonas aeruginosa [6]": {"tested_on": "Pseudomonas aeruginosa", "experiment": "Antibacterial activity against Pseudomonas aeruginosa ATCC 25668 measured after 16 hrs by CLSI based microtitre broth dilution method", "assay_type": "functional"}, "Escherichia coli [7]": {"tested_on": "Escherichia coli", "experiment": "Antibacterial activity against Escherichia coli MTCC 739 measured after 16 hrs by CLSI based microtitre broth dilution method", "assay_type": "functional"}, "Escherichia coli [8]": {"tested_on": "Escherichia coli", "experiment": "Antibacterial activity against Escherichia coli assessed as zone of inhibition at 25 ug/ml", "assay_type": "functional", "settings": "read-out: DIZ"}, "[9]": {"experiment": "Antibacterial activity against Xanthomonas citri assessed as zone of inhibition at 25 ug/ml", "assay_type": "functional", "settings": "read-out: DIZ"}, "Staphylococcus aureus [10]": {"tested_on": "Staphylococcus aureus", "experiment": "Antibacterial activity against Staphylococcus aureus ATCC 6538 assessed as zone of inhibition at 500 ug per disk measured after 24 hrs by NCCLS based disk diffusion method", "assay_type": "functional", "settings": "read-out: DIZ"}, "Aspergillus flavus [11]": {"tested_on": "Aspergillus flavus", "experiment": "[…] activity against Aspergillus flavus assessed as cell growth inhibition measured after 24 hrs by serial broth-dilution method", "assay_type": "functional"}, "Aspergillus flavus [12]": {"tested_on": "Aspergillus flavus", "experiment": "[…] activity against Aspergillus flavus assessed as zone of inhibition measured after 24 hrs by agar well diffusion method", "assay_type": "functional"}, "Bacillus subtilis [13]": {"tested_on": "Bacillus subtilis", "experiment": "Antibacterial activity against Bacillus subtilis assessed as zone of inhibition measured after 24 hrs by agar well diffusion method", "assay_type": "functional"}, "Escherichia coli [14]": {"tested_on": "Escherichia coli", "experiment": "Antibacterial activity against Escherichia coli assessed as zone of inhibition measured after 24 hrs by agar well diffusion method", "assay_type": "functional"}, "[15]": {"experiment": "Antioxidant activity assessed as DPPH radical scavenging activity preincubated for 24 hrs followed by dark incubation 30 mins by UV-visible spectrophotometer method", "assay_type": "functional"}, "Metaphire sieboldi": {"tested_on": "Metaphire sieboldi", "experiment": "Anthelmintic activity against Metaphire sieboldi assessed as mean paralysing time up to 0.5% w/v", "assay_type": "functional"}},
  "data": [
    {"smiles": "Cc1c(C)c(C)c(Cn2c[n+](Cc3cc(=O)oc4cc(O)ccc34)c3ccccc32)c(C)c1C", "values": [
      {"measurement": "IC50", "setting": "[1]", "result": 7.84, "unit": "µM"}
    ]},
    {"smiles": "O=C(CC(Sc1nc2ccccc2[nH]1)c1ccccc1)c1cc2ccccc2oc1=O", "note": "(configuration not stated)", "values": [
      {"measurement": "MIC", "setting": "Pseudomonas aeruginosa [2]", "result": 2200, "unit": "µg/mL"},
      {"measurement": "IC50", "setting": "[3]", "result": 35000, "unit": "µg/mL"}
    ]},
    {"smiles": "COc1ccc(N2CC(c3cc(=O)oc4cc(C)ccc34)c3nc4ccccc4n3C2)cc1", "note": "(configuration not stated)", "values": [
      {"measurement": "Activity", "setting": "Mus musculus", "result": 52.61, "unit": "%"}
    ]},
    {"smiles": "O=c1oc2ccccc2cc1/C(Cn1cnc2ccccc21)=N\\OCc1ccc(Cl)cc1", "values": [
      {"measurement": "MIC", "setting": "Bacillus subtilis [4]", "result": 0.95, "unit": "µg/mL"},
      {"measurement": "MIC", "setting": "Staphylococcus aureus [5]", "result": 1.56, "unit": "µg/mL"},
      {"measurement": "MIC", "setting": "Pseudomonas aeruginosa [6]", "result": 3.12, "unit": "µg/mL"},
      {"measurement": "MIC", "setting": "Escherichia coli [7]", "result": 3.12, "unit": "µg/mL"}
    ]},
    {"smiles": "CCOC(=O)c1sc(Sc2cc3ccccc3oc2=O)c(-c2nc3ccccc3[nH]2)c1N", "values": [
      {"measurement": "zone of inhibition at 25 µg/mL", "setting": "Escherichia coli [8]", "result": 19, "unit": "mm"},
      {"measurement": "zone of inhibition at 25 µg/mL", "setting": "[9]", "result": 14, "unit": "mm"}
    ]},
    {"smiles": "O=c1oc2ccccc2c(Nc2nc3ccccc3[nH]2)c1[N+](=O)[O-]", "values": [
      {"measurement": "zone of inhibition at 500 µg/disc", "setting": "Staphylococcus aureus [10]", "result": 23, "unit": "mm"}
    ]},
    {"smiles": "O=c1oc2ccccc2c(O)c1C(Sc1nc2ccccc2[nH]1)c1ccc(O)cc1", "note": "(configuration not stated)", "values": [
      {"measurement": "MIC", "setting": "Aspergillus flavus [11]", "result": 200, "unit": "µg/mL"},
      {"measurement": "diameter of the inhibition zone (DIZ)", "setting": "Aspergillus flavus [12]", "result": 18, "unit": "mm"},
      {"measurement": "diameter of the inhibition zone (DIZ)", "setting": "Bacillus subtilis [13]", "result": 19, "unit": "mm"},
      {"measurement": "diameter of the inhibition zone (DIZ)", "setting": "Escherichia coli [14]", "result": 17, "unit": "mm"},
      {"measurement": "IC50", "setting": "[15]", "result": 9.82, "unit": "µg/mL"}
    ]},
    {"smiles": "O=C(Cc1cc(=O)oc2ccccc12)Nc1nc2ccccc2[nH]1", "values": [
      {"measurement": "Time", "setting": "Metaphire sieboldi", "result": 14, "unit": "min"}
    ]}
  ]
}
